Species: Rattus norvegicus
Assay: DrugMatrix - Regimen: Daily Repeat
Type: toxicity, organism-based, Sprague-Dawley
Design: regimen Daily Repeat, gender Male, age 6-8 weeks
Settings: in vivo, po, 0 mg/kg, route oral GAVAGE, dose level Control, vehicle 100 % WATER; for ABSOLUTE BASOPHIL / ABSOLUTE EOSINOPHIL / ABSOLUTE LYMPHOCYTE / ABSOLUTE MONOCYTE / ABSOLUTE SEGMENTED NEUTROPHIL / BASOPHIL / EOSINOPHIL / ERYTHROCYTE COUNT / HEMATOCRIT / HEMOGLOBIN / LEUKOCYTE COUNT / LYMPHOCYTE / MEAN CORPUSCULAR HEMOGLOBIN / MEAN CORPUSCULAR HEMOGLOBIN CONCENTRATION / MEAN CORPUSCULAR VOLUME / MONOCYTE / NEUTROPHIL / NUCLEATED RED BLOOD CELLS / PLATELET COUNT: tissue Blood; for ALANINE AMINOTRANSFERASE / ALBUMIN / ALKALINE PHOSPHATASE / ASPARTATE AMINOTRANSFERASE / BLOOD UREA NITROGEN / CARBON DIOXIDE / CHLORIDE / CHOLESTEROL / CREATINE PHOSPHOKINASE / CREATININE / GLUCOSE / LACTATE DEHYDROGENASE / LIPASE / PHOSPHORUS / POTASSIUM / SODIUM / TOTAL BILIRUBIN / TOTAL PROTEIN / URIC ACID: tissue Plasma

## C[N+](C)(C)CCO.[Cl-] [CHOLINE CHLORIDE]
72 h, time 3 day
  ABSOLUTE BASOPHIL: 0 CELLS/uL
  ABSOLUTE EOSINOPHIL: 0 CELLS/uL
  ABSOLUTE LYMPHOCYTE: 10386.33 CELLS/uL
  ABSOLUTE MONOCYTE: 88.5 CELLS/uL
  ABSOLUTE SEGMENTED NEUTROPHIL: 1008.5 CELLS/uL
  BASOPHIL: 0%
  EOSINOPHIL: 0%
  ERYTHROCYTE COUNT: 5.16 x10E6/uL
  HEMATOCRIT: 32.43%
  HEMOGLOBIN: 12.98 G/DL
  LEUKOCYTE COUNT: 11.48 x10E3/uL
  LYMPHOCYTE: 92.33%
  MEAN CORPUSCULAR HEMOGLOBIN: 25.23 pg
  MEAN CORPUSCULAR HEMOGLOBIN CONCENTRATION: 40.08 G/DL
  MEAN CORPUSCULAR VOLUME: 62.95 fL
  MONOCYTE: 0.67%
  NEUTROPHIL: 7%
  NUCLEATED RED BLOOD CELLS: 0 /100WBC
  PLATELET COUNT: 1016.67 x10E3/uL
  ALANINE AMINOTRANSFERASE: 62.17 u/L
  ALBUMIN: 3.95 G/DL
  ALKALINE PHOSPHATASE: 363.5 u/L
  ASPARTATE AMINOTRANSFERASE: 118 u/L
  BLOOD UREA NITROGEN: 14.5 mg/dL
  CARBON DIOXIDE: 22.83 mmol/L
  CHLORIDE: 100.67 MEQ/L
  CHOLESTEROL: 66 mg/dL
  CREATINE PHOSPHOKINASE: 1308.83 u/L
  CREATININE: 0.22 mg/dL
  GLUCOSE: 187.5 mg/dL
  LACTATE DEHYDROGENASE: 380.17 u/L
  LIPASE: 16.17 u/L
  PHOSPHORUS: 14.27 mg/dL
  POTASSIUM: 6.8 MEQ/L
  SODIUM: 142.53 MEQ/L
  TOTAL BILIRUBIN: 0.2 mg/dL
  TOTAL PROTEIN: 5.68 G/DL
  URIC ACID: 2.87 mg/dL
120 h, time 5 day
  ABSOLUTE BASOPHIL: 0 CELLS/uL
  ABSOLUTE EOSINOPHIL: 80 CELLS/uL
  ABSOLUTE LYMPHOCYTE: 13301.33 CELLS/uL
  ABSOLUTE MONOCYTE: 180.83 CELLS/uL
  ABSOLUTE SEGMENTED NEUTROPHIL: 1187.83 CELLS/uL
  BASOPHIL: 0%
  EOSINOPHIL: 0.5%
  ERYTHROCYTE COUNT: 5.54 x10E6/uL
  HEMATOCRIT: 35.65%
  HEMOGLOBIN: 14.22 G/DL
  LEUKOCYTE COUNT: 14.75 x10E3/uL
  LYMPHOCYTE: 90.67%
  MEAN CORPUSCULAR HEMOGLOBIN: 25.65 pg
  MEAN CORPUSCULAR HEMOGLOBIN CONCENTRATION: 39.88 G/DL
  MEAN CORPUSCULAR VOLUME: 64.35 fL
  MONOCYTE: 1%
  NEUTROPHIL: 7.83%
  NUCLEATED RED BLOOD CELLS: 0.17 /100WBC
  PLATELET COUNT: 1285.33 x10E3/uL
  ALANINE AMINOTRANSFERASE: 51.67 u/L
  ALBUMIN: 4.08 G/DL
  ALKALINE PHOSPHATASE: 391.5 u/L
  ASPARTATE AMINOTRANSFERASE: 99.5 u/L
  BLOOD UREA NITROGEN: 15.5 mg/dL
  CARBON DIOXIDE: 28.33 mmol/L
  CHLORIDE: 101.83 MEQ/L
  CHOLESTEROL: 67.83 mg/dL
  CREATINE PHOSPHOKINASE: 771.33 u/L
  CREATININE: 0.23 mg/dL
  GLUCOSE: 156.5 mg/dL
  LACTATE DEHYDROGENASE: 544.33 u/L
  LIPASE: 10.17 u/L
  PHOSPHORUS: 12.03 mg/dL
  POTASSIUM: 6.81 MEQ/L
  SODIUM: 144.13 MEQ/L
  TOTAL BILIRUBIN: 0.22 mg/dL
  TOTAL PROTEIN: 6 G/DL
  URIC ACID: 2.18 mg/dL

Reference: ChEMBL document CHEMBL3885881, “DrugMatrix”
